Data reported in ChEMBL document CHEMBL4507305, “Data for DCP probe TP-024” (2021).

Key:
[1] = target: Vascular endothelial growth factor receptor 2 (Homo sapiens) (UniProt P35968); conditions: Compound concentration 1000.0 nM
[2] = target: Phosphatidylinositol 5-phosphate 4-kinase type-2 beta (Homo sapiens) (UniProt P78356); conditions: Compound concentration 1000.0 nM
[3] = target: Calcium-dependent protein kinase 1 (Plasmodium falciparum) (UniProt P62344); conditions: Compound concentration 1000.0 nM
[4] = target: MAP kinase-interacting serine/threonine-protein kinase 2 (Homo sapiens) (UniProt Q9HBH9); conditions: Compound concentration 1000.0 nM
[5] = target: 5-hydroxytryptamine receptor 5A (Homo sapiens) (UniProt P47898); conditions: Compound concentration 10.0 uM
[6] = target: Tyrosine-protein kinase receptor Tie-1 (Homo sapiens) (UniProt P35590); conditions: Compound concentration 1000.0 nM
[7] = target: Tyrosine-protein kinase Srms (Homo sapiens) (UniProt Q9H3Y6); conditions: Compound concentration 1000.0 nM
[8] = target: Phosphatidylinositol 4,5-bisphosphate 3-kinase catalytic subunit gamma isoform (Homo sapiens) (UniProt P48736); conditions: Compound concentration 1000.0 nM
[9] = target: ALK tyrosine kinase receptor (Homo sapiens) (UniProt Q9UM73); conditions: Compound concentration 1000.0 nM
Chain of ALK tyrosine kinase receptor (Homo sapiens) (Q9UM73 19-1620 limits assumed): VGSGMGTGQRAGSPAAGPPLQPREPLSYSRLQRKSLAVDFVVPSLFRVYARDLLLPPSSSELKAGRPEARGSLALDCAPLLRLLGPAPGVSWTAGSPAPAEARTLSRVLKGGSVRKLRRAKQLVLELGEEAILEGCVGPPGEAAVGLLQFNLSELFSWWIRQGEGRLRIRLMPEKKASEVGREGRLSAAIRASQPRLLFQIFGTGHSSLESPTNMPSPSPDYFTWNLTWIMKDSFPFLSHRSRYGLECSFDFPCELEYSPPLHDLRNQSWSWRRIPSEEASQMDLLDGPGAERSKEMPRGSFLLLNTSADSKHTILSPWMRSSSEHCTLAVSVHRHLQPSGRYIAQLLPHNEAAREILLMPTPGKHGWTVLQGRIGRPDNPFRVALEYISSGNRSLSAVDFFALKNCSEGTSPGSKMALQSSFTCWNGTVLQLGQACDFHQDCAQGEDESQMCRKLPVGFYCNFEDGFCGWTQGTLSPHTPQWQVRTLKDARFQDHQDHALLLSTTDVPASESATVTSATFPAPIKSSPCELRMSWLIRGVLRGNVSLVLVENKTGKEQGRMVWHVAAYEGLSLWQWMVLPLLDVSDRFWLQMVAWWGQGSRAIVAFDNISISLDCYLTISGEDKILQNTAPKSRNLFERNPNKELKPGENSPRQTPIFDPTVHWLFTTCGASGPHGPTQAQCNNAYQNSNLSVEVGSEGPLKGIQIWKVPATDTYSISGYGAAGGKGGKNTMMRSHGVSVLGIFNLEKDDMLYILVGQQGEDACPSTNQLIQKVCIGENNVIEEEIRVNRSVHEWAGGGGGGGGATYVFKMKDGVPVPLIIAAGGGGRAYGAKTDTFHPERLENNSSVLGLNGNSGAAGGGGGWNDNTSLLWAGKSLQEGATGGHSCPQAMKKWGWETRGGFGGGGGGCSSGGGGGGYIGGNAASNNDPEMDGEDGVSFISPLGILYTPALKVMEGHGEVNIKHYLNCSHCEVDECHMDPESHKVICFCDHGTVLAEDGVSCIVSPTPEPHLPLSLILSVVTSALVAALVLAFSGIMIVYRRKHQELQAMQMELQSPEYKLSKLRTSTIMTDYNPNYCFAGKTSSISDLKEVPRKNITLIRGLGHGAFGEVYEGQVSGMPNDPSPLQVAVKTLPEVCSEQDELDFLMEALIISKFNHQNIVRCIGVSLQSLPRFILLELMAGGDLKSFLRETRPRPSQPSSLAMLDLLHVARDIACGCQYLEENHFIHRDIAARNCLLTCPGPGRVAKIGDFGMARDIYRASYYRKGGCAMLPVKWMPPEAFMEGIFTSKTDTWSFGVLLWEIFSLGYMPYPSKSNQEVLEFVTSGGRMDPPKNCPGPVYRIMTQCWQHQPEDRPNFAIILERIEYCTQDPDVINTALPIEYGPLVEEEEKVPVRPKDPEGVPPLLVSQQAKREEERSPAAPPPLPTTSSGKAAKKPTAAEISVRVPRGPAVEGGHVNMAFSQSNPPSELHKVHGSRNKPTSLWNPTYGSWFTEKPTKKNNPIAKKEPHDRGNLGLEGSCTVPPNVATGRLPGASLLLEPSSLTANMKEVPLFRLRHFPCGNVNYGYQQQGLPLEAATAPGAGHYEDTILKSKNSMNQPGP

[10] = target: Mitogen-activated protein kinase kinase kinase 9 (Homo sapiens) (UniProt P80192); conditions: Compound concentration 1000.0 nM
[11] = target: Mitogen-activated protein kinase kinase kinase 6 (Homo sapiens) (UniProt O95382); conditions: Compound concentration 1000.0 nM
[12] = target: Dual specificity tyrosine-phosphorylation-regulated kinase 2 (Homo sapiens) (UniProt Q92630); conditions: Compound concentration 1000.0 nM
[13] = target: Receptor-interacting serine/threonine-protein kinase 2 (Homo sapiens) (UniProt O43353); conditions: Compound concentration 1000.0 nM
[14] = target: Dual specificity testis-specific protein kinase 1 (Homo sapiens) (UniProt Q15569); conditions: Compound concentration 1000.0 nM
[15] = target: Serine/threonine-protein kinase TNNI3K (Homo sapiens) (UniProt Q59H18); conditions: Compound concentration 1000.0 nM
[16] = target: Fibroblast growth factor receptor 2 (Homo sapiens) (UniProt P21802); conditions: Compound concentration 1000.0 nM
[17] = target: Macrophage-stimulating protein receptor (Homo sapiens) (UniProt Q04912); conditions: Compound concentration 1000.0 nM
[18] = tested on: Receptor-type tyrosine-protein kinase FLT3 (Homo sapiens), P36888 [UNDEFINED MUTATION]; conditions: Compound concentration 1000.0 nM
[19] = target: STE20-like serine/threonine-protein kinase (Homo sapiens) (UniProt Q9H2G2); conditions: Compound concentration 1000.0 nM
[20] = target: Cyclin-dependent kinase 17 (Homo sapiens) (UniProt Q00537); conditions: Compound concentration 1000.0 nM
Chain of Cyclin-dependent kinase 17 (Homo sapiens) (Q00537 whole entry, looked up): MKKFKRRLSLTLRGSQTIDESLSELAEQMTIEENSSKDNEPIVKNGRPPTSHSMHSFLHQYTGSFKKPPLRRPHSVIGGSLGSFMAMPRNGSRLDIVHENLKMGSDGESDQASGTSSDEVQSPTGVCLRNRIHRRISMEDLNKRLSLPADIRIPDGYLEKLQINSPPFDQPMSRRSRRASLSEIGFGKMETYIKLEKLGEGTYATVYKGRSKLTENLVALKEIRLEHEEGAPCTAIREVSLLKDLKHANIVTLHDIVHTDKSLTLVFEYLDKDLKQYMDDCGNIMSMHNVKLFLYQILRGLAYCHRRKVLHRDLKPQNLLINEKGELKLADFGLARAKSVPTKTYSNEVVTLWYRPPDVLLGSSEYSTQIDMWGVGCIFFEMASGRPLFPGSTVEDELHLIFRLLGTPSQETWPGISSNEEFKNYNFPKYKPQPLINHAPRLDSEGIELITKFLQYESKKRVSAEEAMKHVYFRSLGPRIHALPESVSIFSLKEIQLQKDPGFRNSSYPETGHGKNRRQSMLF

[21] = target: Mitogen-activated protein kinase 8 (Homo sapiens) (UniProt P45983); conditions: Compound concentration 1000.0 nM
Chain of Mitogen-activated protein kinase 8 (Homo sapiens) (P45983 whole entry, the tested form may be a part): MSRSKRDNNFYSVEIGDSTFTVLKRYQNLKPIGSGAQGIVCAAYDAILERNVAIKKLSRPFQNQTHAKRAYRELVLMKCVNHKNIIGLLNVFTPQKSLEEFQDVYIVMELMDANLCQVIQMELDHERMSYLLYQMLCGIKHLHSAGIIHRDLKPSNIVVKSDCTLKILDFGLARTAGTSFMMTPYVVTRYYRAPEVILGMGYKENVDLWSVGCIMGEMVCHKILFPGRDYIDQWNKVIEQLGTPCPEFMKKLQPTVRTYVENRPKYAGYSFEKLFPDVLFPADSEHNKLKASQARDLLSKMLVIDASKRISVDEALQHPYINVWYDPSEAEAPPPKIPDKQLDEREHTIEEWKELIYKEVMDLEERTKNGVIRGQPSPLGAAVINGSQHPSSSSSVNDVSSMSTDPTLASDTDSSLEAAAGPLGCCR

[22] = target: Epithelial discoidin domain-containing receptor 1 (Homo sapiens) (UniProt Q08345); conditions: Compound concentration 1000.0 nM
[23] = target: Activin receptor type-2A (Homo sapiens) (UniProt P27037); conditions: Compound concentration 1000.0 nM
[24] = target: cGMP-dependent protein kinase 1 (Homo sapiens) (UniProt Q13976); conditions: Compound concentration 1000.0 nM
[25] = target: Casein kinase I isoform gamma-3 (Homo sapiens) (UniProt Q9Y6M4); conditions: Compound concentration 1000.0 nM
[26] = target: 5-hydroxytryptamine receptor 2A (Homo sapiens) (UniProt P28223); conditions: Compound concentration 10.0 uM
Chain of 5-hydroxytryptamine receptor 2A (Homo sapiens) (P28223 whole entry): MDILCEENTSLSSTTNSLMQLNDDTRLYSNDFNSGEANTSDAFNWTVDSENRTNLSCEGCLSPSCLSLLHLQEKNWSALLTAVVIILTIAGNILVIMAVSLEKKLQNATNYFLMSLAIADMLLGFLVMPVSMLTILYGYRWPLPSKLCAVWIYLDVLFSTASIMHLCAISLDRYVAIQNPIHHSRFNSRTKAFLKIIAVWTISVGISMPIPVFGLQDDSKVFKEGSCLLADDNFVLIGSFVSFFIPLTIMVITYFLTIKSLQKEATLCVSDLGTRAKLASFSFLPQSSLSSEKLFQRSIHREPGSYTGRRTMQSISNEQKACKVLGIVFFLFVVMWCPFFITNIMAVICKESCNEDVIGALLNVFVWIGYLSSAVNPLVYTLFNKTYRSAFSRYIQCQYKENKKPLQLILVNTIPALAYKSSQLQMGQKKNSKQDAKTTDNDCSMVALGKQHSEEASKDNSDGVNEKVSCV

[27] = tested on: Mast/stem cell growth factor receptor Kit (Homo sapiens), P10721 [D816V]; conditions: Compound concentration 1000.0 nM
[28] = target: Receptor-interacting serine/threonine-protein kinase 1 (Homo sapiens) (UniProt Q13546); conditions: Compound concentration 1000.0 nM
Chain of Receptor-interacting serine/threonine-protein kinase 1 (Homo sapiens) (Q13546 whole entry): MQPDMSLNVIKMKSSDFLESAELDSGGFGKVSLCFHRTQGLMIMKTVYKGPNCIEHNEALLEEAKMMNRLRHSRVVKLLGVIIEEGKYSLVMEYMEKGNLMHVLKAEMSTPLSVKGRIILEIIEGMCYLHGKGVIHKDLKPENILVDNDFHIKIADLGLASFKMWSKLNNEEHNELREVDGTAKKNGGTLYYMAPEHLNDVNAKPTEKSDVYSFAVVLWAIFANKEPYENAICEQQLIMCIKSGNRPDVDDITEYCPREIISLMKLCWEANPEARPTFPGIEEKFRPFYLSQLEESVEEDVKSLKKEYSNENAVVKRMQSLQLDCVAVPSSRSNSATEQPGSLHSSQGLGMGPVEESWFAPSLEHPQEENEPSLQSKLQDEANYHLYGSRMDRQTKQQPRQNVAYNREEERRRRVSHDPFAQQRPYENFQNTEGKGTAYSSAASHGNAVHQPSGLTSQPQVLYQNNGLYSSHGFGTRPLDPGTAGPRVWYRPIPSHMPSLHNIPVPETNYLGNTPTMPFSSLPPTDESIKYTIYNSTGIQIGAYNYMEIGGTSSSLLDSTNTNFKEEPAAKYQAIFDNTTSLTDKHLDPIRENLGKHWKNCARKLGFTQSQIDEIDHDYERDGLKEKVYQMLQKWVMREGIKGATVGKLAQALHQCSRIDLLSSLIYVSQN

[29] = tested on: Proto-oncogene tyrosine-protein kinase receptor Ret (Homo sapiens), P07949 [M918T]; conditions: Compound concentration 1000.0 nM
Chain of Proto-oncogene tyrosine-protein kinase receptor Ret (Homo sapiens), P07949 [M918T] (P07949 whole entry M918T): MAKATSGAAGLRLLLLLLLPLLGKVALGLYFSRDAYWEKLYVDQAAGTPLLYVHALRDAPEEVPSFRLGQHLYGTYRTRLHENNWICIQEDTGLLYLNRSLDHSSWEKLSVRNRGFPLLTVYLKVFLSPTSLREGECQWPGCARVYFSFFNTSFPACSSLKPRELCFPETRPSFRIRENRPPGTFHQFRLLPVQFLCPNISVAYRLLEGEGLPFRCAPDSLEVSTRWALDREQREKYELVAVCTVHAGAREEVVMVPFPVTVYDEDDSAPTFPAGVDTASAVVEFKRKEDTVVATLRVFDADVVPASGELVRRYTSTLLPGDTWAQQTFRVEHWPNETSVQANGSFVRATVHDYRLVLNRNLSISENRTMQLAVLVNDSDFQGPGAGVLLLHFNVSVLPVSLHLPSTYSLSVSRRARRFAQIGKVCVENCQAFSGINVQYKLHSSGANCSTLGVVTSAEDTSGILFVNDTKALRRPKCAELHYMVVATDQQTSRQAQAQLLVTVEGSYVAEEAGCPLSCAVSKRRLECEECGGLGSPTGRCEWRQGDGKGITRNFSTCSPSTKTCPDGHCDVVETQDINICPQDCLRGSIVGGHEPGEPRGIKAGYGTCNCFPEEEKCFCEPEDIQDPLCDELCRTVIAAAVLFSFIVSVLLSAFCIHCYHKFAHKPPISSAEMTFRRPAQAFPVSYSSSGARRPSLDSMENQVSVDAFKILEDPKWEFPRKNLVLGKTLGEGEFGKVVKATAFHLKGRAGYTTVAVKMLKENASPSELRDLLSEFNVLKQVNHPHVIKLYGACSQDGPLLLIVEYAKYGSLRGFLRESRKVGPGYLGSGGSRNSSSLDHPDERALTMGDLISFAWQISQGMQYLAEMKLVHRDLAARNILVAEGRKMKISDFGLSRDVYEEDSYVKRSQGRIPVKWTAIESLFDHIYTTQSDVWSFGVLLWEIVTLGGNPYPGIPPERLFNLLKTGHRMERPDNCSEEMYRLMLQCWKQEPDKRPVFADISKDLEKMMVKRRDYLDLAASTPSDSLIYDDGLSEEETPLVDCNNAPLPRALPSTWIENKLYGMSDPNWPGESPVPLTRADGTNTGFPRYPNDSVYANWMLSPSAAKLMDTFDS

[30] = target: Serine/threonine-protein kinase ICK (Homo sapiens) (UniProt Q9UPZ9); conditions: Compound concentration 1000.0 nM
[31] = target: Dual serine/threonine and tyrosine protein kinase (Homo sapiens) (UniProt Q6XUX3); conditions: Compound concentration 1000.0 nM
[32] = target: Calcium/calmodulin-dependent protein kinase type II subunit beta (Homo sapiens) (UniProt Q13554); conditions: Compound concentration 1000.0 nM
[33] = target: Dual specificity tyrosine-phosphorylation-regulated kinase 1B (Homo sapiens) (UniProt Q9Y463); conditions: Compound concentration 1000.0 nM
[34] = tested on: Epidermal growth factor receptor (Homo sapiens), P00533 [UNDEFINED MUTATION]; conditions: Compound concentration 1000.0 nM
[35] = target: Mitogen-activated protein kinase kinase kinase 10 (Homo sapiens) (UniProt Q02779); conditions: Compound concentration 1000.0 nM
[36] = target: Aurora kinase C (Homo sapiens) (UniProt Q9UQB9); conditions: Compound concentration 1000.0 nM
[37] = target: Serine/threonine-protein kinase TBK1 (Homo sapiens) (UniProt Q9UHD2); conditions: Compound concentration 1000.0 nM
[38] = target: Calcium/calmodulin-dependent protein kinase type 1G (Homo sapiens) (UniProt Q96NX5); conditions: Compound concentration 1000.0 nM
[39] = target: 5'-AMP-activated protein kinase catalytic subunit alpha-2 (Homo sapiens) (UniProt P54646); conditions: Compound concentration 1000.0 nM
[40] = target: Serine/threonine-protein kinase PknB (Mycobacterium tuberculosis) (UniProt P9WI81); conditions: Compound concentration 1000.0 nM
[41] = target: G protein-coupled receptor kinase 3 (Homo sapiens) (UniProt P35626); conditions: Compound concentration 1000.0 nM
[42] = target: NUAK family SNF1-like kinase 1 (Homo sapiens) (UniProt O60285); conditions: Compound concentration 1000.0 nM
[43] = target: Phosphorylase b kinase gamma catalytic chain, skeletal muscle/heart isoform (Homo sapiens) (UniProt Q16816); conditions: Compound concentration 1000.0 nM
[44] = target: Serine/threonine-protein kinase Nek9 (Homo sapiens) (UniProt Q8TD19); conditions: Compound concentration 1000.0 nM

**Q.** `Cc1cc(-n2nc(Cc3cc(F)cc(C(F)(F)F)c3)nc2C)ccc1C(N)=O` [TP-024] was tested. Which residual activity [1] did it give?
**A.** 100%

**Q.** And the residual activity [2]?
**A.** 100%

**Q.** What about the residual activity [3] of the same compound?
**A.** 100%

**Q.** And the residual activity [4]?
**A.** 100%

**Q.** And the inhibition [5]?
**A.** 7.99%

**Q.** What about the residual activity [6] of the same compound?
**A.** 100%

**Q.** And the residual activity [7]?
**A.** 98%

**Q.** What about the residual activity [8] of the same compound?
**A.** 79%

**Q.** And the residual activity [9]?
**A.** 100%

**Q.** And the residual activity [10]?
**A.** 100%

**Q.** And the residual activity [11]?
**A.** 100%

**Q.** What about the residual activity [12] of the same compound?
**A.** 91%

**Q.** And the residual activity [13]?
**A.** 100%

**Q.** And the residual activity [14]?
**A.** 100%

**Q.** And the residual activity [15]?
**A.** 100%

**Q.** What about the residual activity [16] of the same compound?
**A.** 100%

**Q.** What about the residual activity [17] of the same compound?
**A.** 100%

**Q.** And the residual activity [18]?
**A.** 100%

**Q.** And the residual activity [19]?
**A.** 92%

**Q.** What about the residual activity [20] of the same compound?
**A.** 77%

**Q.** And the residual activity [21]?
**A.** 78%

**Q.** What about the residual activity [22] of the same compound?
**A.** 86%

**Q.** And the residual activity [23]?
**A.** 100%

**Q.** What about the residual activity [24] of the same compound?
**A.** 100%

**Q.** And the residual activity [25]?
**A.** 95%

**Q.** And the inhibition [26]?
**A.** 10.5%

**Q.** And the residual activity [27]?
**A.** 100%

**Q.** And the residual activity [28]?
**A.** 90%

**Q.** What about the residual activity [29] of the same compound?
**A.** 100%

**Q.** And the residual activity [30]?
**A.** 100%

**Q.** What about the residual activity [31] of the same compound?
**A.** 97%

**Q.** And the residual activity [32]?
**A.** 100%

**Q.** And the residual activity [33]?
**A.** 100%

**Q.** And the residual activity [34]?
**A.** 100%

**Q.** What about the residual activity [35] of the same compound?
**A.** 95%

**Q.** And the residual activity [36]?
**A.** 100%

**Q.** And the residual activity [37]?
**A.** 89%

**Q.** What about the residual activity [38] of the same compound?
**A.** 100%

**Q.** And the residual activity [39]?
**A.** 100%

**Q.** And the residual activity [40]?
**A.** 78%

**Q.** And the residual activity [41]?
**A.** 100%

**Q.** And the residual activity [42]?
**A.** 100%

**Q.** What about the residual activity [43] of the same compound?
**A.** 98%

**Q.** What about the residual activity [44] of the same compound?
**A.** 100%

**Q.** How did the residual activity [1] turn out when `Cc1nc(Cc2cccc(C(F)(F)F)c2)sc1-c1ccc(C(N)=O)nc1` [TP-024n] was run?
**A.** 86%

**Q.** And the residual activity [2]?
**A.** 88%

**Q.** What about the residual activity [3] of the same compound?
**A.** 100%

**Q.** And the residual activity [4]?
**A.** 100%

**Q.** And the inhibition [5]?
**A.** 3.99%

**Q.** And the residual activity [6]?
**A.** 28%

**Q.** What about the residual activity [7] of the same compound?
**A.** 77%

**Q.** What about the residual activity [8] of the same compound?
**A.** 78%

**Q.** What about the residual activity [9] of the same compound?
**A.** 99%

**Q.** What about the residual activity [10] of the same compound?
**A.** 100%

**Q.** What about the residual activity [11] of the same compound?
**A.** 99%

**Q.** And the residual activity [12]?
**A.** 90%

**Q.** What about the residual activity [13] of the same compound?
**A.** 100%

**Q.** What about the residual activity [14] of the same compound?
**A.** 88%

**Q.** And the residual activity [15]?
**A.** 100%

**Q.** And the residual activity [16]?
**A.** 100%

**Q.** And the residual activity [17]?
**A.** 100%

**Q.** What about the residual activity [18] of the same compound?
**A.** 100%

**Q.** And the residual activity [19]?
**A.** 100%

**Q.** What about the residual activity [20] of the same compound?
**A.** 83%

**Q.** What about the residual activity [21] of the same compound?
**A.** 90%

**Q.** What about the residual activity [22] of the same compound?
**A.** 100%

**Q.** And the residual activity [23]?
**A.** 85%

**Q.** And the residual activity [24]?
**A.** 87%

**Q.** What about the residual activity [25] of the same compound?
**A.** 93%

**Q.** What about the inhibition [26] of the same compound?
**A.** 20.4%

**Q.** What about the residual activity [27] of the same compound?
**A.** 81%

**Q.** What about the residual activity [28] of the same compound?
**A.** 91%

**Q.** And the residual activity [29]?
**A.** 95%

**Q.** What about the residual activity [30] of the same compound?
**A.** 100%

**Q.** And the residual activity [31]?
**A.** 78%

**Q.** What about the residual activity [32] of the same compound?
**A.** 100%

**Q.** And the residual activity [33]?
**A.** 100%

**Q.** What about the residual activity [34] of the same compound?
**A.** 100%

**Q.** And the residual activity [35]?
**A.** 71%

**Q.** What about the residual activity [36] of the same compound?
**A.** 100%

**Q.** And the residual activity [37]?
**A.** 91%

**Q.** What about the residual activity [38] of the same compound?
**A.** 99%

**Q.** And the residual activity [39]?
**A.** 96%

**Q.** What about the residual activity [40] of the same compound?
**A.** 99%

**Q.** What about the residual activity [41] of the same compound?
**A.** 100%

**Q.** And the residual activity [42]?
**A.** 86%

**Q.** What about the residual activity [43] of the same compound?
**A.** 84%

**Q.** And the residual activity [44]?
**A.** 100%
